From ChEMBL document CHEMBL2311286, “Design and synthesis of alkoxyindolyl-3-acetic acid analogs as peroxisome proliferator-activated receptor-γ/δ agonists” (Bioorg Med Chem Lett, 2013)

Legend:
[1] = biological target: T1, Peroxisome proliferator-activated receptor delta (Mus musculus) (UniProt P35396); test: Agonist activity at mouse PPARdelta assessed as maximum activation at 10 uM by in vitro functional transactivation assay relative to 0.1 uM GW0742
T1 sequence (whole entry): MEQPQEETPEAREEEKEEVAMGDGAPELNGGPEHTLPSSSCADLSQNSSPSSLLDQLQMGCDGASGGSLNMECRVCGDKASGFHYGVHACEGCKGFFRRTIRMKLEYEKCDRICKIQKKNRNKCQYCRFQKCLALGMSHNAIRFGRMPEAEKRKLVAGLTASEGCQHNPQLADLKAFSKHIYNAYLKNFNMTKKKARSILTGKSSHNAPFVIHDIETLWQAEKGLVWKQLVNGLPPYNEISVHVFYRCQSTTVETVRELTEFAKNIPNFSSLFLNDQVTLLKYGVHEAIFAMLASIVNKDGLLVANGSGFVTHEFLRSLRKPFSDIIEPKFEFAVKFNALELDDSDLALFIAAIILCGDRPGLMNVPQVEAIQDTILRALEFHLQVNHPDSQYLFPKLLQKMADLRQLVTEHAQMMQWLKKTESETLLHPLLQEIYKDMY

[2] = biological target: T2, Peroxisome proliferator-activated receptor gamma (Mus musculus) (UniProt P37238); test: Agonist activity at mouse PPARgamma assessed as maximum activation at 10 uM by in vitro functional transactivation assay relative to 1 uM rosiglitazone
T2 sequence (whole entry): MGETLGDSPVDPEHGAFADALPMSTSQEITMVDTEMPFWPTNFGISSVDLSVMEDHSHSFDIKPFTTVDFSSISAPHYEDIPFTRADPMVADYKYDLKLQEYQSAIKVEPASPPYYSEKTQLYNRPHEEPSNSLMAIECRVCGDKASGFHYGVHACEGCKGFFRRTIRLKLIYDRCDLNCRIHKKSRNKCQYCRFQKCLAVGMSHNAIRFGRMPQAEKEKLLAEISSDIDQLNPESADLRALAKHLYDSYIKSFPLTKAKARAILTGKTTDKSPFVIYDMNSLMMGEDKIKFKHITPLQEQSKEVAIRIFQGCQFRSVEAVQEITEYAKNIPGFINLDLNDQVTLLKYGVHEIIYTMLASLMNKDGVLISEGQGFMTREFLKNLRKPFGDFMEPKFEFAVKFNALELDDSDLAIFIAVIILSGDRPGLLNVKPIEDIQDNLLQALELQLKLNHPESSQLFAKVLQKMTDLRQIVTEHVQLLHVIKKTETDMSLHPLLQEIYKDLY

[3] = biological target: T3, Peroxisome proliferator-activated receptor alpha (Mus musculus) (UniProt P23204); test: Agonist activity at mouse PPARalpha assessed as maximum activation at 10 uM by in vitro functional transactivation assay relative to 1 uM GW0746
T3 sequence (whole entry): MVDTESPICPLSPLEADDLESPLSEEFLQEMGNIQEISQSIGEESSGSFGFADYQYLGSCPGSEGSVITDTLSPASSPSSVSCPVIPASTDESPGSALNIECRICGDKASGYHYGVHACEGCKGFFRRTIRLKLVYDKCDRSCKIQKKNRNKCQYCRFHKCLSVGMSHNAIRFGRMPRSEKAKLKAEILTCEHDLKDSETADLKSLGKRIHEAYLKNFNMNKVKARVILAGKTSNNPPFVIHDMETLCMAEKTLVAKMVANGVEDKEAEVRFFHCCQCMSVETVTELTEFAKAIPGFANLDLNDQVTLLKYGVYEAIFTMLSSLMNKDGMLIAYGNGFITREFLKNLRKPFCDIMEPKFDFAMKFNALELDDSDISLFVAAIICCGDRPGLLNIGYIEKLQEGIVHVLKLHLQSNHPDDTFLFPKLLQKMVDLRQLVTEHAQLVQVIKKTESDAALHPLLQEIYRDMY

SMILES	%max [1] [%]	%max [2] [%]	%max [3] [%]
O=C(O)Cc1cn(Cc2ccccc2)c2cc(OCCCn3c4ccccc4c4ccccc43)ccc12	< 10	< 10	< 10
O=C(O)Cc1cn(Cc2ccccc2)c2ccc(OCCCN3c4ccccc4Oc4ccccc43)cc12	21.7	43.1	12.8
O=C(O)Cc1c[nH]c2cc(OCCCN3c4ccccc4Oc4ccccc43)ccc12	< 10	< 10	< 10
O=C(O)Cc1c[nH]c2ccc(OCCCn3c4ccccc4c4ccccc43)cc12	10.5	< 10	10.1
O=C(O)Cc1cn(Cc2ccccc2)c2cc(OCCCN3c4ccccc4Oc4ccccc43)ccc12	27.3	< 10	< 10
O=C(O)Cc1cn(Cc2ccccc2)c2ccc(OCCCn3c4ccccc4c4ccccc43)cc12	41.3	28.7	< 10
O=C(O)Cc1c[nH]c2ccc(OCCCN3c4ccccc4Oc4ccccc43)cc12	16	29.4	< 10
O=C(O)Cc1cn(Cc2ccc(F)cc2)c2cc(OCCCN3c4ccccc4Oc4ccccc43)ccc12	36.6	23.8	< 10
O=C(O)Cc1c[nH]c2cc(OCCCn3c4ccccc4c4ccccc43)ccc12	< 10	< 10	< 10
